Reference: patent US8013156B2 (Exelixis, Inc., priority 2003, dated 2011)
pIC50: −log10 of the molar value.

What follows are compounds tested against Tie-2 (Homo sapiens, UniProt Q02763) (assay: Tie-2 tyrosine kinase activity assay (luciferase/luciferin ATP consumption with pEY substrate, or 33P-ATP incorporation)). Details: human enzyme Tie-2.
Assay type: biochemical
In short: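 Values are IC50 categories (A <50 nM to D ≥10,000 nM), with Ki obtainable by fitting rates to a tight-binding model. Assay formats: 33P-ATP phosphate transfer to adsorbed generic substrate counted by scintillation, or luciferase-detected ATP depletion using pEY.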

Tie-2, sequence (Q02763 23-1124): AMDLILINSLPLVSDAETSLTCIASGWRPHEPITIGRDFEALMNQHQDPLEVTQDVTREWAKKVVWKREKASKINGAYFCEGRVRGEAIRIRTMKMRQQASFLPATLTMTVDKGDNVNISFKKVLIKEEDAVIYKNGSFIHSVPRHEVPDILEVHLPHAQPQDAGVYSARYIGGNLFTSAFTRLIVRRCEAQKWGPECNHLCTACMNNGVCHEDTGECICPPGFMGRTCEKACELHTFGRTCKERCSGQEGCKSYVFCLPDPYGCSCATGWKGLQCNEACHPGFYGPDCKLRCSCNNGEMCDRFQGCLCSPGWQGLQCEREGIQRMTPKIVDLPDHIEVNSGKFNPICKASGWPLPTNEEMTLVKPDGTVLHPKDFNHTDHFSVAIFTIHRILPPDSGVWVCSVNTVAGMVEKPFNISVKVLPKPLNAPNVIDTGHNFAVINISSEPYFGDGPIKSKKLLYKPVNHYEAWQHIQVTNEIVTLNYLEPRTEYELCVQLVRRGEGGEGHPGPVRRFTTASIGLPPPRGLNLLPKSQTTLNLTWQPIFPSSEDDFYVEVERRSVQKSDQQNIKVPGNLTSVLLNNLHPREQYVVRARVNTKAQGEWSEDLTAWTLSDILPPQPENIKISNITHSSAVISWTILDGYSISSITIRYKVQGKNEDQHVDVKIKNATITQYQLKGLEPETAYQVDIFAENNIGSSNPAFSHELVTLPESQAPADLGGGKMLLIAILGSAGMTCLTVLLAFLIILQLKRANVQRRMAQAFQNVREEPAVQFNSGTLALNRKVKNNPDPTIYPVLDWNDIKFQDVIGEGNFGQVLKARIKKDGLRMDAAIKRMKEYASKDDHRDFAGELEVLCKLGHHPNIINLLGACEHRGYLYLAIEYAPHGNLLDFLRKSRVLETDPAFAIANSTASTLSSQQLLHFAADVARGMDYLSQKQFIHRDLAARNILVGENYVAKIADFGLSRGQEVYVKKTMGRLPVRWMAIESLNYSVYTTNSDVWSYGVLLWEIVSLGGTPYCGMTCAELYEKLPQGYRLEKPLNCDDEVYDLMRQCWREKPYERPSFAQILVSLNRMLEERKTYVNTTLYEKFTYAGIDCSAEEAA

SMILES | pIC50
Nc1nccc(COc2cccnc2N2CCN(C(=O)Nc3cc(C(F)(F)F)ccc3F)CC2)n1 [Example 169, 4-(3-{[(2-aminopyrimidin-4-yl)methyl]oxy}pyridin-2-yl)-N-[2-fluoro-5-(trifluoromethyl)phenyl]piperazine-1-carboxamide] | > 7.30
CCc1cccc(NC(=O)Nc2cc(COc3cccnc3N3CCN(C(=O)Nc4cccc(CC)c4)CC3)ccn2)c1 [Example 170, N-(3-ethylphenyl)-4-[3-({[2-({[(3-ethylphenyl)amino]carbonyl}amino)pyridin-4-yl]methyl}oxy)pyridin-2-yl]piperazine-1-carboxamide] | > 7.30
CCc1cccc(NC(=O)N2CCN(c3ncccc3OCc3ccnc(NC(=O)CN4CCN(C)CC4)c3)CC2)c1 [Example 171, N-(3-ethylphenyl)-4-(3-{[(2-{[(4-methylpiperazin-1-yl)acetyl]amino}pyridin-4-yl)methyl]oxy}pyridin-2-yl)piperazine-1-carboxamide] | > 7.30
CCc1cccc(NC(=O)N2CCN(c3nsnc3OCc3ccnc(NC(=O)CN4CCN(C)CC4)c3)CC2)c1 [Example 172, N-(3-ethylphenyl)-4-(4-{[(2-{[(4-methylpiperazin-1-yl)acetyl]amino}pyridin-4-yl)methyl]oxy}-1,2,5-thiadiazol-3-yl)piperazine-1-carboxamide] | > 7.30
CN1CCN(CC(=O)Nc2cc(COc3cccnc3N3CCN(C(=O)Nc4cc(C(F)(F)F)cc(C(F)(F)F)c4)CC3)ccn2)CC1 [Example 173, N-[3,5-bis(trifluoromethyl)phenyl]-4-(3-{[(2-{[(4-methylpiperazin-1-yl)acetyl]amino}pyridin-4-yl)methyl]oxy}pyridin-2-yl)piperazine-1-carboxamide] | > 7.30
Nc1nccc(COc2cccnc2N2CCN(C(=O)Nc3cccc(C(F)(F)F)c3)CC2)n1 [Example 174, 4-(3-{[(2-aminopyrimidin-4-yl)methyl]oxy}pyridin-2-yl)-N-[3-(trifluoromethyl)phenyl]piperazine-1-carboxamide] | > 7.30
CCc1cc(NC(=O)N2CCN(c3ncccc3OCc3ccnc(N)n3)CC2)ccc1F [Example 176, 4-(3-{[(2-aminopyrimidin-4-yl)methyl]oxy}pyridin-2-yl)-N-(3-ethyl-4-fluorophenyl)piperazine-1-carboxamide] | > 7.30
Nc1nccc(COc2cccnc2N2CCN(CC(=O)Nc3cc(C(F)(F)F)cc(C(F)(F)F)c3)CC2)n1 [Example 177, 2-[4-(3-{[(2-aminopyrimidin-4-yl)methyl]oxy}pyridin-2-yl)piperazin-1-yl]-N-[3,5-bis(trifluoromethyl)phenyl]acetamide] | 5.00 to 6.00
Nc1nccc(COc2cccnc2N2CCN(C(=O)Nc3ccccc3)CC2)n1 [Example 178, 4-(3-{[(2-aminopyrimidin-4-yl)methyl]oxy}pyridin-2-yl)-N-phenylpiperazine-1-carboxamide] | 5.00 to 6.00
CCc1cc(Cl)cc(NC(=O)N2CCN(c3ncccc3OCc3ccnc(N)n3)CC2)c1 [Example 179, 4-(3-{[(2-aminopyrimidin-4-yl)methyl]oxy}pyridin-2-yl)-N-(3-chloro-5-ethylphenyl)piperazine-1-carboxamide] | > 7.30
CCc1ccc(F)c(NC(=O)N2CCN(c3ncccc3OCc3ccnc(N)n3)CC2)c1 [Example 180, 4-(3-{[(2-aminopyrimidin-4-yl)methyl]oxy}pyridin-2-yl)-N-(5-ethyl-2-fluorophenyl)piperazine-1-carboxamide] | > 7.30
CCc1cc(Br)cc(NC(=O)N2CCN(c3ncccc3OCc3ccnc(N)n3)CC2)c1 [Example 181, 4-(3-{[(2-aminopyrimidin-4-yl)methyl]oxy}pyridin-2-yl)-N-(3-bromo-5-ethylphenyl)piperazine-1-carboxamide] | > 7.30
CCc1cccc(NC(=O)N2CCN(c3ncccc3OCc3ccnc(NC(=O)OCCN4CCN(C)CC4)c3)CC2)c1 [Example 182, 2-(4-methylpiperazin-1-yl)ethyl [4-({[2-(4-{[(3-ethylphenyl)amino]carbonyl}piperazin-1-yl)pyridin-3-yl]oxy}methyl)pyridin-2-yl]carbamate] | > 7.30
Nc1nccc(COc2cccnc2N2CCN(C(=O)Nc3cccc(Cl)c3)CC2)n1 [Example 183, 4-(3-{[(2-aminopyrimidin-4-yl)methyl]oxy}pyridin-2-yl)-N-(3-chlorophenyl)piperazine-1-carboxamide] | 6.00 to 7.30
Nc1nccc(COc2cccnc2N2CCN(C(=O)Nc3cccc(Br)c3)CC2)n1 [Example 184, 4-(3-{[(2-aminopyrimidin-4-yl)methyl]oxy}pyridin-2-yl)-N-(3-bromophenyl)piperazine-1-carboxamide] | > 7.30
CC(=O)N1CCN(c2ncccc2OCc2ccnc(NC(=O)CN3CCN(C)CC3)c2)CC1 [Example 185, N-[4-({[2-(4-acetylpiperazin-1-yl)pyridin-3-yl]oxy}methyl)pyridin-2-yl]-2-(4-methylpiperazin-1-yl)acetamide] | ≤ 5.00
Nc1nccc(COc2cccnc2N2CCN(C(=O)Nc3cccc(F)c3)CC2)n1 [Example 186, 4-(3-{[(2-aminopyrimidin-4-yl)methyl]oxy}pyridin-2-yl)-N-(3-fluorophenyl)piperazine-1-carboxamide] | 6.00 to 7.30

SMILES | pIC50
Nc1nccc(COc2cccnc2N2CCN(C(=O)Nc3ccc(F)cc3)CC2)n1 [Example 187, 4-(3-{[(2-aminopyrimidin-4-yl)methyl]oxy}pyridin-2-yl)-N-(4-fluorophenyl)piperazine-1-carboxamide] | 5.00 to 6.00
Nc1nccc(COc2cccnc2N2CCN(C(=O)Nc3ccccc3F)CC2)n1 [Example 188, 4-(3-{[(2-aminopyrimidin-4-yl)methyl]oxy}pyridin-2-yl)-N-(2-fluorophenyl)piperazine-1-carboxamide] | 5.00 to 6.00
CCc1cc(CC)cc(NC(=O)N2CCN(c3ncccc3OCc3ccnc(N)n3)CC2)c1 [Example 189, 4-(3-{[(2-aminopyrimidin-4-yl)methyl]oxy}pyridin-2-yl)-N-(3,5-diethylphenyl)piperazine-1-carboxamide] | > 7.30
CCc1cccc(NC(=O)N2CCN(c3ncc(Br)cc3OCc3ccnc(N)n3)CC2)c1 [Example 190, 4-(3-{[(2-aminopyrimidin-4-yl)methyl]oxy}-5-bromopyridin-2-yl)-N-(3-ethylphenyl)piperazine-1-carboxamide] | > 7.30
CNC(=O)N1CCN(c2ncccc2OCc2ccnc(NC(=O)CN3CCN(C)CC3)c2)CC1 [Example 191, N-methyl-4-(3-{[(2-{[(4-methylpiperazin-1-yl)acetyl]amino}pyridin-4-yl)methyl]oxy}pyridin-2-yl)piperazine-1-carboxamide] | 5.00 to 6.00
Nc1nccc(COc2cccnc2N2CCN(C(=O)Nc3cc(C(F)(F)F)ccc3Cl)CC2)n1 [Example 192, 4-(3-{[(2-aminopyrimidin-4-yl)methyl]oxy}pyridin-2-yl)-N-[2-chloro-5-(trifluoromethyl)phenyl]piperazine-1-carboxamide] | > 7.30
Nc1nccc(COc2cccnc2N2CCN(C(=O)Nc3cc(Cl)ccc3F)CC2)n1 [Example 193, 4-(3-{[(2-aminopyrimidin-4-yl)methyl]oxy}pyridin-2-yl)-N-(5-chloro-2-fluorophenyl)piperazine-1-carboxamide] | 6.00 to 7.30
CCc1cccc(NC(=O)N2CCN(c3ncc(Br)cc3OCc3nc(N)ncc3Br)CC2)c1 [Example 194, 4-(3-{[(2-amino-5-bromopyrimidin-4-yl)methyl]oxy}-5-bromopyridin-2-yl)-N-(3-ethylphenyl)piperazine-1-carboxamide] | > 7.30
Nc1nccc(COc2cccnc2N2CCN(C(=O)Nc3cccc(C(F)(F)F)c3F)CC2)n1 [Example 195, 4-(3-{[(2-aminopyrimidin-4-yl)methyl]oxy}pyridin-2-yl)-N-[2-fluoro-3-(trifluoromethyl)phenyl]piperazine-1-carboxamide] | 6.00 to 7.30
Nc1nccc(COc2cccnc2N2CCN(C(=O)Nc3cc(F)cc(C(F)(F)F)c3)CC2)n1 [Example 196, 4-(3-{[(2-aminopyrimidin-4-yl)methyl]oxy}pyridin-2-yl)-N-[3-fluoro-5-(trifluoromethyl)phenyl]piperazine-1-carboxamide] | > 7.30
Nc1nccc(COc2cccnc2N2CCN(C(=O)Nc3cc(Cl)cc(Cl)c3)CC2)n1 [Example 197, 4-(3-{[(2-aminopyrimidin-4-yl)methyl]oxy}pyridin-2-yl)-N-(3,5-dichlorophenyl)piperazine-1-carboxamide] | > 7.30
CCc1cc(Cl)cc(NC(=O)N2CCN(c3ncccc3OCc3ccnc(NC(=O)CN4CCN(C)CC4)c3)CC2)c1 [Example 198, N-(3-chloro-5-ethylphenyl)-4-(3-{[(2-{[(4-methylpiperazin-1-yl)acetyl]amino}pyridin-4-yl)methyl]oxy}pyridin-2-yl)piperazine-1-carboxamide] | > 7.30
CCc1ccc(F)c(NC(=O)N2CCN(c3ncccc3OCc3ccnc(NC(=O)CN4CCN(C)CC4)c3)CC2)c1 [Example 199, N-(5-ethyl-2-fluorophenyl)-4-(3-{[(2-{[(4-methylpiperazin-1-yl)acetyl]amino}pyridin-4-yl)methyl]oxy}pyridin-2-yl)piperazine-1-carboxamide] | > 7.30
CCc1cc(NC(=O)N2CCN(c3ncccc3OCc3ccnc(N)n3)CC2)cc(C(F)(F)F)c1 [Example 200, 4-(3-{[(2-aminopyrimidin-4-yl)methyl]oxy}pyridin-2-yl)-N-[3-ethyl-5-(trifluoromethyl)phenyl]piperazine-1-carboxamide] | > 7.30
CCc1cccc(NC(=O)N2CCN(c3nccnc3OCc3ccnc(N)n3)CC2)c1 [Example 201, 4-(3-{[(2-aminopyrimidin-4-yl)methyl]oxy}pyrazin-2-yl)-N-(3-ethylphenyl)piperazine-1-carboxamide] | > 7.30
CCc1cc(Cl)cc(NC(=O)N2CCN(c3nccnc3OCc3ccnc(N)n3)CC2)c1 [Example 202, 4-(3-{[(2-aminopyrimidin-4-yl)methyl]oxy}pyrazin-2-yl)-N-(3-chloro-5-ethylphenyl)piperazine-1-carboxamide] | > 7.30
